Biological target: Erk1 (Homo sapiens (Human), UniProt P27361)
Assay: Protein Mass Modification Assay (intact protein MALDI)
Assay type: binding
Description: Protein Mass Modification Assay
Intact protein: Erk1 from Millipore (Cat. No. 14-439) was incubated for 60 min. at room temperature with a 10-fold excess of test compound to protein. 4 μL aliquots of the resulting mixture were diluted with 15 μL of 0.2% TFA prior to micro C4 ZipTipping directly onto the MALDI target using sinapinic acid as the desorption matrix (10 mg/ml in 0.1% TFA:Acetonitrile 50:50, v/v). The centroid mass of the target protein in the control sample was compared with the centroid mass of the target protein incubated with compound. A shift in the centroid mass of the treated protein compared to the untreated protein was divided by the molecular weight of the compound. This number corresponds to the percentage of modified protein after one hour incubation. Results from this assay are reported in Table A under the column “ERK1 Mass Mod (%).”

Chain of Erk1 (P27361 whole entry, looked up): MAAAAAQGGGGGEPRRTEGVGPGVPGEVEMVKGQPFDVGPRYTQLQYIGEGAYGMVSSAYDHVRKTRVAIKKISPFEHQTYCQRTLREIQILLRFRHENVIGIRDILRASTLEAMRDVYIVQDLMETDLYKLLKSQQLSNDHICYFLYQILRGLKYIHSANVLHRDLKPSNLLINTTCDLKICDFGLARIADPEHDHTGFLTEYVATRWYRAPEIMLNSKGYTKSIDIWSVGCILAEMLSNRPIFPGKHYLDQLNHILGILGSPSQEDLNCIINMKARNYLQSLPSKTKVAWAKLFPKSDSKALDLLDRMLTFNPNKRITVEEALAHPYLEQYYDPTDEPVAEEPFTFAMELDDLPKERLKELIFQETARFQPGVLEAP

Structure (SMILES)	ERK1 Mass Mod (%)
C=CC(=O)Nc1ccccc1Nc1nc(Nc2cc(C(N)=O)ccn2)ncc1C(F)(F)F [Compound I-83, 2-((4-((2-Acrylamidophenyl)amino)-5-(trifluoromethyl)pyrimidin-2-yl)amino)isonicotinamide]	E (provided a mass modification of ≧70%)
C=CC(=O)Nc1cc(C)ccc1Nc1nc(Nc2cc(OC)nc(N3CCN(CC)CC3)c2)ncc1C(F)(F)F [Compound I-89, N-(2-((2-((2-(4-Ethylpiperazin-1-yl)-6-methoxypyridin-4-yl)amino)-5-(trifluoromethyl)pyrimidin-4-yl)amino)-5-methylphenyl)acrylamide]	F (provided a mass modification of 31-69%)
C=CC(=O)Nc1cc(C)ccc1Nc1nc(Nc2cc(OC)nc(N3CCN(C(C)=O)CC3)c2)ncc1C(F)(F)F [Compound I-93, N-(2-((2-((2-(4-Acetylpiperazin-1-yl)-6-methoxypyridin-4-yl)amino)-5-(trifluoromethyl)pyrimidin-4-yl)amino)-5-methylphenyl)acrylamide]	E (key: E: provided a mass modification of ≧70%; F: provided a mass modification of 31-69%; G: proived a mass modification ≦30%)
C=CC(=O)Nc1cc(C)ccc1Nc1nc(Nc2cc(OC)nc(N3CCOCC3)c2)ncc1C(F)(F)F [Compound I-94, N-(2-((2-((2-Methoxy-6-morpholinopyridin-4-yl)amino)-5-(trifluoromethyl)pyrimidin-4-yl)amino)-5-methylphenyl)acrylamide]	F (provided a mass modification of 31-69%)
C=C(C)S(=O)(=O)Nc1ccccc1Nc1nc(Nc2cc(C(C)=O)ccc2C)ncc1C(F)(F)F [Compound I-97, N-(2-((2-((5-acetyl-2-methylphenyl)amino)-5-(trifluoromethyl)pyrimidin-4-yl)amino)phenyl)prop-1-ene-2-sulfonamide]	G (proived a mass modification ≦30%)
C=C(C)S(=O)(=O)Nc1cc(F)ccc1Nc1nc(Nc2cc(C(C)=O)ccc2C)ncc1C(F)(F)F [Compound I-99, N-(2-((2-((5-acetyl-2-methylphenyl)amino)-5-(trifluoromethyl)pyrimidin-4-yl)amino)-5-fluorophenyl)prop-1-ene-2-sulfonamide]	G (proived a mass modification ≦30%)
C=CC(=O)Nc1ccccc1Nc1nc(NC2CCCCC2)ncc1Cl [Compound I-107, N-(2-((5-chloro-2-(cyclohexylamino)pyrimidin-4-yl)amino)phenyl) acrylamide]	E (provided a mass modification of ≧70%)
C=CC(=O)Nc1ccccc1Nc1nc(N[C@H]2CCCN(C(C)=O)C2)ncc1Cl [Compound I-115, (S)—N-(2-((2-((1-acetylpiperidin-3-yl)amino)-5-chloropyrimidin-4-yl)amino)phenyl) acrylamide]	E (provided a mass modification of ≧70%)
C=CC(=O)Nc1ccccc1Nc1nc(NC2CCN(C(C)=O)CC2)ncc1Cl [Compound I-116, N-(2-((2-((1-acetylpiperidin-4-yl)amino)-5-chloropyrimidin-4-yl)amino)phenyl) acrylamide]	E (provided a mass modification of ≧70%)
C=CC(=O)Nc1ccccc1Nc1nc(NC2CCN(S(C)(=O)=O)CC2)ncc1Cl [Compound I-117, N-(2-((5-chloro-2-((1-(methylsulfonyl)piperidin-4-yl)amino)pyrimidin-4-yl)amino)phenyl)acrylamide]	E (provided a mass modification of ≧70%)
C=CC(=O)Nc1ccccc1Nc1nc(N[C@H]2CCCN(C=O)C2)ncc1Cl [Compound I-122, (S)—N-(2-((5-chloro-2-((1-formylpiperidin-3-yl)amino)pyrimidin-4-yl)amino)phenyl)acrylamide]	E (provided a mass modification of ≧70%)
C=CC(=O)Nc1ccccc1Nc1nc(N[C@H]2CCCNC2)ncc1Cl [Compound I-126, (S)—N-(2-((5-chloro-2-(piperidin-3-ylamino)pyrimidin-4-yl)amino)phenyl) acrylamide]	E (provided a mass modification of ≧70%)
C=CC(=O)Nc1ccccc1Nc1nc(NC2CCC(F)(F)CC2)ncc1Cl [Compound I-127, N-(2-((5-chloro-2-((4,4-difluorocyclohexyl)amino)pyrimidin-4-yl)amino)phenyl) acrylamide]	E (provided a mass modification of ≧70%)
C=CC(=O)Nc1ccccc1Nc1nc(N[C@@H]2CCCN(C(C)=O)C2)ncc1Cl [Compound I-128, (R)—N-(2-((2-((1-acetylpiperidin-3-yl)amino)-5-chloropyrimidin-4-yl)amino)phenyl) acrylamide]	E (provided a mass modification of ≧70%)
C=CC(=O)Nc1ccccc1Nc1nc(N[C@H]2CC[C@H](C(N)=O)CC2)ncc1Cl [Compound I-129, trans-4-((4-((2-acrylamidophenyl)amino)-5-chloropyrimidin-2-yl)amino)-cyclohexanecarboxamide]	E (provided a mass modification of ≧70%)
C=CC(=O)Nc1ccccc1Nc1nc(N[C@H]2CCCN(C(=O)C(C)(C)O)C2)ncc1Cl [Compound I-135, (S)—N-(2-((5-chloro-2-((1-(2-hydroxy-2-methylpropanoyl)piperidin-3-yl)amino)pyrimidin-4-yl)amino)phenyl)acrylamide]	E (provided a mass modification of ≧70%)
C=CC(=O)Nc1ccccc1Nc1nc(N[C@H]2CCCN(C(=O)[C@H](C)O)C2)ncc1Cl [Compound I-138, N-(2-((5-chloro-2-(((S)-1-((S)-2-hydroxypropanoyl)piperidin-3-yl)amino)pyrimidin-4-yl)amino)phenyl)acrylamide]	E (provided a mass modification of ≧70%)
C=CC(=O)Nc1ccccc1Nc1nc(Nc2ccc(N3CCNCC3)cc2OC(F)F)ncc1Cl [Compound I-142, N-(2-((5-chloro-2-((2-(difluoromethoxy)-4-(piperazin-1-yl)phenyl)amino)pyrimidin-4-yl)amino)phenyl)acrylamide]	E (provided a mass modification of ≧70%)
C=CC(=O)Nc1ccccc1Nc1nc(Nc2ccc(N3CCOCC3)cc2OC)ncc1C#N [Compound I-143, N-(2-((5-cyano-2-((2-methoxy-4-morpholinophenyl)amino)pyrimidin-4-yl)amino)phenyl)acrylamide]	F (provided a mass modification of 31-69%)
C=CC(=O)Nc1ccccc1Nc1nc(Nc2ccc(N3CCOCC3)cc2OC)ncc1N [Compound I-144, N-(2-((5-amino-2-((2-methoxy-4-morpholinophenyl)amino)pyrimidin-4-yl)amino)phenyl) acrylamide]	F (provided a mass modification of 31-69%)
C=CC(=O)Nc1ccccc1Nc1nc(Nc2ccc3c(c2OC)CCCC(=O)N3CCN2CCOCC2)ncc1Cl [Compound I-145, N-(2-((5-chloro-2-((6-methoxy-1-(2-morpholinoethyl)-2-oxo-2,3,4,5-tetrahydro-1H-benzo[b]azepin-7-yl)amino)pyrimidin-4-yl)amino)phenyl)acrylamide]	E (provided a mass modification of ≧70%)
C=CC(=O)Nc1ccccc1Nc1nc(Nc2ccc3c(c2OC)CCCC(=O)N3CCCN2CCOCC2)ncc1Cl [Compound I-146, N-(2-((5-chloro-2-((6-methoxy-1-(3-morpholinopropyl)-2-oxo-2,3,4,5-tetrahydro-1H-benzo[b]azepin-7-yl)amino)pyrimidin-4-yl)amino)phenyl)acrylamide]	E (provided a mass modification of ≧70%)
C=CC(=O)Nc1ccccc1Nc1nc(Nc2ccc3c(c2OC)CCCC(=O)N3CCCNC(=O)OC(C)(C)C)ncc1Cl [Compound I-147, tert-butyl (3-(7-((4-((2-acrylamidophenyl)amino)-5-chloropyrimidin-2-yl)amino)-6-methoxy-2-oxo-2,3,4,5-tetrahydro-1H-benzo[b]azepin-1-yl)propyl)carbamate]	E (provided a mass modification of ≧70%)
C=CC(=O)Nc1ccccc1Nc1nc(Nc2ccc3c(c2OC)CCCC(=O)N3CCCN)ncc1Cl [Compound I-148, N-(2-((2-((1-(3-aminopropyl)-6-methoxy-2-oxo-2,3,4,5-tetrahydro-1H-benzo[b]azepin-7-yl)amino)-5-chloropyrimidin-4-yl)amino)phenyl)acrylamide]	E (provided a mass modification of ≧70%)
C=CC(=O)Nc1ccccc1Nc1nc(Nc2ccc(N(CC)C(C)=O)cc2OC)ncc1Cl [Compound I-155, N-(2-((5-chloro-2-((4-(N-ethylacetamido)-2-methoxyphenyl)amino)pyrimidin-4-yl)amino)phenyl)acrylamide]	E (provided a mass modification of ≧70%)
C=CC(=O)Nc1cc(OC)ccc1Nc1nc(Nc2ccc(N3CCCN(C(=O)OC(C)(C)C)CC3)cc2C#N)ncc1Cl [Compound I-156, tert-butyl 4-(4-((4-((2-acrylamido-4-methoxyphenyl)amino)-5-chloropyrimidin-2-yl)amino)-3-cyanophenyl)-1,4-diazepane-1-carboxylate]	E (provided a mass modification of ≧70%)
C=CC(=O)Nc1cc(OC)ccc1Nc1nc(Nc2ccc(N3CCC[C@H]3CO)cc2C#N)ncc1Cl [Compound I-163, (S)—N-(2-((5-chloro-2-((2-cyano-4-(2-(hydroxymethyl)pyrrolidin-1-yl)phenyl)amino)pyrimidin-4-yl)amino)-5-methoxyphenyl)acrylamide]	E (provided a mass modification of ≧70%)
C=CC(=O)Nc1cc(OC)ccc1Nc1nc(Nc2ccc(N(CC)C(C)=O)cc2C#N)ncc1Cl [Compound I-164, N-(2-((5-chloro-2-((2-cyano-4-(N-ethylacetamido)phenyl)amino)pyrimidin-4-yl)amino)-5-methoxyphenyl)acrylamide]	E (provided a mass modification of ≧70%)

Source: patent US9796700B2 (Celgene CAR LLC, priority 2013, dated 2017)
